The values that follow come from paper PMC6480704, “Antiproliferative Aspidosperma-Type Monoterpenoid Indole Alkaloids from Bousigonia mekongensis Inhibit Tubulin Polymerization” (Molecules, 2019).

The subject of assay [1] is A549 (lung carcinoma). As to the kind of experiment: Antiproliferative SRB assay, A549. The assay is classed as cell-based. As to conditions: Homo sapiens, A549, SRB assay, 72 h, read-out: IC50 A549. The protocol:
(§1) We tested the fourteen known aspidosperma-type alkaloids (1–14) against chemosensitive KB (originally isolated from epidermoid carcinoma of the nasopharynx) and P-gp over-expressing multidrug-resistant (MDR) KB subline KB-VIN, as well as three additional human cancer cell lines, A549 (lung carcinoma), MDA-MB-231 (triple negative breast cancer), and MCF-7 (estrogen receptor-positive breast cancer), using a sulforhodamine B (SRB) assay (Table 1).
(§2) Antiproliferative activity was determined by the sulforhodamine B (SRB) colorimetric assay as previously described. In brief, human tumor cell lines were cultured in RPMI-1640 medium containing 2 mM l-glutamine and 25 mM HEPES (Gibco), supplemented with 10% fetal bovine serum (Speciality Media), 100 µg/mL streptomycin, 100 IU/mL penicillin, and 0.25 µg/mL amphotericin B (Corning). MDR stock cells (KB-VIN) were maintained in the presence of 100 nM vincristine (VIN) (Sigma-Aldrich, Saint Louis, MI, USA).
(§3) Freshly trypsinized cell suspensions were seeded in 96-well microtiter plates at densities of 4000–11,000 cells per well (based on the cell lines) with compounds. After 72 h in culture with test compounds, cells were fixed in 10% trichloroacetic acid followed by staining with 0.04% sulforhodamine B (Sigma-Aldrich). The bound SRB was solubilized in 10 mM Tris-base and the absorbance at 515 nm was measured using a Microplate Reader (ELx800, Bio-Tek Instruments, Winooski, VT, USA) operated by Gen5 software (BioTek) after solubilizing the protein-bound dye with 10 mM Tris base. The mean IC50 is the concentration of agent that reduced cell growth by 50% compared with vehicle (DMSO) control under the experimental conditions and is the average from at least three independent experiments with duplicate samples.
(§4) The following human tumor cell lines were used in the assay: A549 (lung carcinoma), MDA-MB-231 (triplen-egative breast cancer), KB (originally isolated from epidermoid carcinoma of the nasopharynx), KB-VIN (VIN-resistant KB subline showing MDR phenotype by overexpressing P-gp), MCF-7 (estrogen receptor (ER)-positive, HER2-negative breast cancer). […] All cell lines were obtained from the Lineberger Comprehensive Cancer Center (UNC-CH) or from ATCC (Manassas, VA), except KB-VIN, which was a generous gift from Professor Y.-C. Cheng (Yale University). Paclitaxel was purchased from Sigma-Aldrich.
(In general: The SRB assay estimates cell density from bound dye.)

Assay [2] concerns MDA-MB-231 (triple negative breast cancer). As to the kind of experiment: Antiproliferative SRB assay, MDA-MB-231. The settings on record: Homo sapiens, MDA-MB-231, SRB assay, 72 h, read-out: IC50 MDA-MB-231. The assay is classed as cell-based. How it is done: as §1, §2, §3, §4
Assay [3] relates to KB (originally isolated from epidermoid carcinoma of the nasopharynx). As to the kind of experiment: Antiproliferative SRB assay, KB. The assay is classed as cell-based. As to conditions: Homo sapiens, SRB assay, 72 h, read-out: IC50 KB. How it is done: as §1, §2, §3, §4
The subject of assay [4] is KB-VIN (VIN-resistant KB subline showing MDR phenotype by overexpressing P-gp). As to the kind of experiment: Antiproliferative SRB assay, KB-VIN. As to conditions: Homo sapiens, KBVIN, 72 h, read-out: IC50 KB-VIN. The protocol:
as §1, §2, §3, §4

In assay [5] the test system is MCF-7 (estrogen receptor-positive breast cancer). As to the kind of experiment: Antiproliferative SRB assay, MCF-7. The assay is classed as cell-based. The settings on record: Homo sapiens, MCF7, SRB assay, 72 h, read-out: IC50 MCF-7. How it is done:
as §1, §2, §3, §4

Assay [6] addresses T1, tubulin (colchicine site) (Bos taurus, UniProt P81947+Q6B856).
T1 construct: electrophoretically homogeneous bovine brain tubulin; from tissue; host or cells: bovine brain
As to the kind of experiment: Inhibition of [3H]colchicine binding to tubulin. Further details: species or system bovine. The settings on record: 5 μM [3H]colchicine, 1 μM tubulin, 5 μM test compound, 37 °C, 10 min, NA = not active; for inhibition at 5 µM: read-out: Tubulin Assay ICB: percent inhibition of [3H]colchicine binding. How it is done: The data for 6 and 7 indicate that both alkaloids bind to tubulin and inhibit its assembly, and these effects are closely related to their antiproliferative activities against tumor cells. Thus, we further investigated whether the inhibition of tubulin polymerization was the major action of these alkaloids.
(§5) Inhibitory effects of compounds on tubulin assembly were evaluated using electrophoretically homogeneous bovine brain tubulin as described previously using 1.0 mg/mL (10 μM) tubulin. The turbidity development as tubulin assembly was initiated by adding 0.4 mM GTP and followed for 20 min at 30 °C following a rapid temperature jump. Compound concentrations as EC50 values that inhibited the increase in turbidity by 50% relative to a control sample were determined. In colchicine inhibition assays, tubulin (1.0 μM) was incubated with 5.0 μM [^3H] colchicine and 5.0 μM test compound at 37 °C for 10 min, when about 40–60% of maximum colchicine binding occurs in control samples.

Assay [7] concerns KB-VIN cells. As to the kind of experiment: Cell cycle analysis by flow cytometry (PI staining). The assay is classed as cell-based, human. The settings on record: 24 h, 1 × IC50 or 3 × IC50. The protocol: KB-VIN cells were treated with compounds 3, 4, 6, 7, and 13 at their IC50 (1 × IC50) or three-fold IC50 (3 × IC50) concentration, and the cell cycle progression was analyzed by flow cytometer (Figure 2A).
(§6) Figure 2 Mitotic defects in KB-VIN cells treated by compounds. […] Cell cycle distributions (sub-G1, G1, S, G2/M) were analyzed using flow cytometry after staining cells with propidium iodide (PI). […] Fixed cells were stained with antibodies to α-tubulin (green) and phospho-histone H3 (pH3, red), and DAPI was used for DNA (blue). Stained cells were observed by confocal fluorescence microscope. The represented image is a projection of 15~20 optical sections acquired at 0.5~1 µm intervals. […] Bar, 0.025 mm. Additional images are available in Supplementary Figure S1.
KB-VIN cells were seeded in 12-well plates at a density of 1 × 10^5 per well and incubated overnight. […] The DNA contents of stained cells were analyzed by flow cytometer (LSRFortessa, BD Biosciences) controlled by FACSDiva software (BD Biosciences). Paclitaxel (PXL) was used at 3 or 6 µM. […] Experiments were repeated a minimum of two times.
In general terms: In flow cytometry, cells or beads pass a laser one at a time.

The test system of assay [8] is KB-VIN cells. As to the kind of experiment: Immunofluorescence staining of α-tubulin, pH3 and DNA. The assay is classed as cell-based, human. As to conditions: 24 h, 3 × IC50. How it is done:
as §6
To determine whether the cell cycle arrest was due to an antimicrotubule effect, cells treated with compounds were analyzed by immunocytochemistry using antibodies to α-tubulin for microtubules and mitotic spindles, Ser10-phosphorylated histone H3 (pH3) for the condensed chromatins and 4′,6-diamidino-2-phenylindole (DAPI) for DNA. […] Thus, we concluded that these alkaloids are tubulin polymerization inhibitors.
Immunocytochemical analysis was performed as previously described. […] After treatment of cells with the agent for 24 h, cells were fixed with 4% paraformaldehyde in PBS and permeabilized with 0.5% Triton X-100 in PBS. Fixed cells were labeled with mouse monoclonal antibody to α-tubulin (B5-1-2, Sigma) and rabbit IgG to Ser10-phosphorylated histone H3 (p-H3) (#06570, EMD Millipore), followed by FITC-conjugated antibody to mouse IgG (Sigma) and Alexa Fluor 549-conjugated antibody to rabbit IgG (Life Technologies). Nuclei were labeled with DAPI (Sigma). Fluorescently-labeled cells were observed using a confocal microscope (Zeiss, LSM700) with ZEN (black edition) software (Zeiss). The 15~20 optical sections acquired at 0.5~1 µm intervals were stacked and reconstructed using ZEN (black edition) software. Experiments were repeated at least twice for each compound. Final images were prepared using Adobe Photoshop CS3.

The subject of assay [9] is A549, MDA-MB-231, KB, KB-VIN, and MCF-7. As to the kind of experiment: Antiproliferative SRB assay, values stated across several cell lines. The assay is classed as cell-based, human. As to conditions: for antiproliferative activity (in words): five human tumor cell lines including MDR subline KB-VIN. How it is done:
as §1, §2, §3, §4

The target of assay [10] is T2, bovine brain tubulin (Bos taurus, UniProt P81947+Q6B856).
T2 construct: electrophoretically homogeneous bovine brain tubulin; from tissue; host or cells: bovine brain
T2 sequence (P81947 whole entry): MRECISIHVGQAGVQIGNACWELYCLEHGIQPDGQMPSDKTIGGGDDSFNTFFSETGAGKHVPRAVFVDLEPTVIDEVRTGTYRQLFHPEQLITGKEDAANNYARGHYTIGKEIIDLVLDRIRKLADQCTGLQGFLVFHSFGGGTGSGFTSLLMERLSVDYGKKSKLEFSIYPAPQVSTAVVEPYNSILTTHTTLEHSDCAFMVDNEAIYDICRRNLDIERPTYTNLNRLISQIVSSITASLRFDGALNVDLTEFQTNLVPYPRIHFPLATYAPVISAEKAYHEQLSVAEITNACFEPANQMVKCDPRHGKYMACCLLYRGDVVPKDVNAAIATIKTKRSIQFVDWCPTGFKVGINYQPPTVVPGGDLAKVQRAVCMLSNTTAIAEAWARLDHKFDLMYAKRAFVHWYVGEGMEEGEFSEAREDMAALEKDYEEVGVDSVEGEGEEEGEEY
T2 sequence (Q6B856 whole entry): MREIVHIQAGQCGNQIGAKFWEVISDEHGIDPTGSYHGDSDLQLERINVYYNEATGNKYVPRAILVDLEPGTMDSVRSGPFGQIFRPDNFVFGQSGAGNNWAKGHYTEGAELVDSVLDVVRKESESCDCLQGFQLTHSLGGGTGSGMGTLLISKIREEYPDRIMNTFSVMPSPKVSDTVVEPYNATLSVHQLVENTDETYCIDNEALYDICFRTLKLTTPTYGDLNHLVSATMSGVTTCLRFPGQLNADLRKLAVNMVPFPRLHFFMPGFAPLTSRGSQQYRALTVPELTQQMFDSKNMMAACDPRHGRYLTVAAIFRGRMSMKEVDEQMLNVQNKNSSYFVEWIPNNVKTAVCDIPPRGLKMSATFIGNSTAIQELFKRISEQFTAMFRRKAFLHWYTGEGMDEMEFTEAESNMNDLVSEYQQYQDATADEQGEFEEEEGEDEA
As to the kind of experiment: Inhibition of purified tubulin assembly (turbidity). The assay is classed as biochemical. The settings on record: 10 μM tubulin, 0.4 mM GTP, 20 min at 30 °C; NA = not active (IC50 > 40 µM); read-out: Tubulin Assay ITA: inhibition of purified tubulin assembly, EC50. How it is done:
as §5

Setting [11] is: five human tumor cell lines, read-out: IC50 range over the cell lines tested.
[12] abbreviates: Homo sapiens, A549, KB, KB-VIN, range stated for the group of compounds, read-out: IC50 values ranging over A549, KB and KB-VIN cells.

Entries after “also recorded” stand apart in the source; their conditions may differ. Like-named read-outs stand apart in the source and are kept apart here.

T1 sequence (P81947 whole entry): as the sequence (P81947 whole entry) above
T1 sequence (Q6B856 whole entry): as the sequence (Q6B856 whole entry) above

Regarding `COc1ccc(/C=C\c2cc(OC)c(OC)c(OC)c2)cc1O` [CA-4, combretastatin A-4, reference compound], the IC50 in assay [1] (positive controls, unit nM) is 5.5 ± 0.1 nM; in assay [2] (positive controls, unit nM), 8.2 ± 0.5 nM; in assay [3] (positive controls, unit nM), 3.6 ± 0.1 nM; in assay [4], 3.8 ± 0.1 nM; in assay [5] (positive controls, unit nM) it was 487 ± 11 nM. Further, the “Tubulin Assay ICB: percent inhibition of [3H]colchicine binding” value in assay [6] is “totally inhibited”. Also, the inhibition at 5 µM in assay [6] came to 100 ± 0.4%.

For `CC[C@@]12CC(C(=O)OC)=C3Nc4ccccc4[C@@]34CCN([C@H](CC(C)=O)[C@@H]3O[C@@H]31)[C@@H]24` [Compound 4, melodinine S], the IC50 in [1] is 5600 nM; in assay [2] it was 8200 ± 800 nM; in [3], 5800 ± 300 nM; in assay [4] it was 6300 ± 200 nM; in [5], 10000 ± 900 nM; in assay [9] (setting [11]) it was 5600 to 10000 nM. The “effect on cell cycle progression” value in [7] was “accumulation of cells in the G2/M phase; also recorded: cell cycle arrest at G2/M”. The “microtubule / mitotic spindle morphology” value in assay [8] is given as “dotted tubulin aggregations without spindles”. The “antiproliferative activity (in words)” value in assay [9] was “exhibited antiproliferative activity against all cell lines; also recorded: significant antiproliferative effects against all five tumor cell lines”.

Take `CC[C@@]12CC(C(=O)OC)=C3Nc4ccccc4[C@@]34CCN(C[C@@H]3O[C@@H]31)[C@@H]24` [Compound 5, lochnericine]: the IC50 in [1], in assay [2], in assay [3], in [4] and in assay [5] was > 40000 nM in each case. Further, in assay [10], the EC50 was > 40000 nM. In addition, in assay [6], the inhibition at 5 µM was 0%. Further, the “antiproliferative activity (in words)” value in [9] was “essentially inactive”.

Take `CC[C@@]12CC(C(=O)OC)=C3Nc4cc(OC)ccc4[C@@]34CCN(C[C@@H]3O[C@@H]31)[C@@H]24` [Compound 6, 14,15-α-epoxy-11-methoxytabersonine]: the IC50 in [1] was 500 nM; in [2], 800 nM; in [3] it was 500 nM; in assay [4], 500 nM; in [5], 800 nM; in assay [9] (setting [12]), 500 to 900 nM. Besides, the EC50 in assay [10] amounted to 700 nM. Moreover, the inhibition at 5 µM in assay [6] was 54 ± 0.8%. Besides, in [7], the “effect on cell cycle progression” value is given as “accumulation of cells in the G2/M phase; also recorded: cell cycle arrest at G2/M”. Moreover, the “microtubule / mitotic spindle morphology” value in [8] is recorded as “dotted tubulin aggregations without spindles”. The “fold rise in potency by a methoxy group at C-11” value in assay [9] (6 compared with 5, 9 compared with 8) was ~ 60 fold. In addition, in assay [9], the “antiproliferative activity (in words)” value was “exhibited antiproliferative activity against all cell lines; also recorded: significant antiproliferative effects against all five tumor cell lines”.

Regarding `CC[C@@]12CC(C(=O)OC)=C3Nc4cc(O)ccc4[C@@]34CCN(C[C@@H]3O[C@@H]31)[C@@H]24` [Compound 7, 11-hydroxylochnericine], the IC50 in assay [1] worked out at 5600 ± 100 nM; in assay [2] it was 9800 ± 900 nM; in assay [3], 5400 ± 300 nM; in assay [4] it was 6100 ± 400 nM; in [5], 10800 ± 800 nM. For the same compound, in assay [10], the concentration for a half-maximal effect (EC50) worked out at 4600 ± 100 nM. In addition, the inhibition at 5 µM in assay [6] came out at 35 ± 1%. For the same compound, the “effect on cell cycle progression” value in assay [7] is given as “accumulation of cells in the G2/M phase; also recorded: cell cycle arrest at G2/M”. Further, the “microtubule / mitotic spindle morphology” value in assay [8] was “dotted tubulin aggregations without spindles”. Further, the “antiproliferative activity (in words)” value in [9] is on record as “exhibited antiproliferative activity against all cell lines; also recorded: significant antiproliferative effects against all five tumor cell lines”.

In the case of `COC(=O)C1=C2Nc3cc(O)ccc3C23CCN2CC=CC(C(C)OC(C)=O)(C1)C23` [Compound 13, 19-(R)-acetoxy-11-hydroxytabersonine], the IC50 in [1] was 700 ± 100 nM; in assay [2] it was 900 nM; in assay [3], 700 nM; in assay [4], 700 nM; in assay [5] it was 6700 ± 100 nM; in assay [9] (setting [12]), 500 to 900 nM. The IC50 in assay [9] (setting [11]) fell in the range of 600 to 6700 nM. In addition, the “effect on cell cycle progression” value in assay [7] was “accumulation of cells in the G2/M phase; also recorded: cell cycle arrest at G2/M”. For the same compound, in assay [8], the “microtubule / mitotic spindle morphology” value is reported as “dotted tubulin aggregations without spindles”. Also, the “antiproliferative activity (in words)” value in assay [9] is on record as “exhibited antiproliferative activity against all cell lines; also recorded: significant antiproliferative effects against all five tumor cell lines”.

As a reminder, the IC50 is the concentration that gives 50% inhibition. The term inhibition denotes the change of the read-out against control, counted positive when it falls. For orientation: EC50 means the concentration that produces a half-maximal response.
